From patent US12390437B2, “Itaconic acid derivatives and uses thereof intreating an inflammatory disease or a disease associated with an undesirable immune response” (Sitryx Therapeutics Limited, priority 2019, dated 2025)

Legend:
[1] = Mouse pharmacokinetic study, intravenous dosing; format: in vivo; conditions: male, C57BL/6, mouse, iv, plasma, 10 mg/kg i.v., read-out: Parent compound concentration following intravenous administration
Method in brief: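 Plasma levels were quantified by LC-MS/MS after dosing male C57BL/6 mice either intravenously (10 mg/kg, sampled to 8 hours) or orally by gavage (100 mg/kg, sampled to 24 hours), with three animals per time point.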

[2] = Mouse pharmacokinetic study, oral administration; format: in vivo; conditions: male, C57BL/6, mouse, plasma, po, 100 mg/kg, plasma, male C57BL/6 mice, oral gavage 100 mg/kg; for concentration at 0.083 h: read-out: Parent compound concentrations following oral administration, Time 0.083 h; for concentration at 0.25 h: read-out: Parent compound concentrations following oral administration, Time 0.25 h; for concentration at 0.5 h: read-out: Parent compound concentrations following oral administration, Time 0.5 h; for concentration at 1 h: read-out: Parent compound concentrations following oral administration, Time 1 h; for concentration at 2 h: read-out: Parent compound concentrations following oral administration, Time 2 h; for concentration at 4 h: read-out: Parent compound concentrations following oral administration, Time 4 h; for concentration at 6 h: read-out: Parent compound concentrations following oral administration, Time 6 h; for concentration at 8 h: read-out: Parent compound concentrations following oral administration, Time 8 h; for concentration at 24 h: read-out: Parent compound concentrations following oral administration, Time 24 h
Experimental: Pharmacokinetic studies were carried out in 6-8-week-old male C57BL/6 mice having free access to food and water. Intravenous dosing was conducted at 10 mg/kg (5 mL/kg; vehicle: 10% DMSO-90% (25% HP-13-CD in water)) via tail vein injection, with sampling at 3 min, 8 min, 15 min, 30 min, 1, 2, 4, 6 and 8 hours, i.e., 9 time points in total (N=3/time point), using semi-serial bleeding for plasma. Oral compound administration, via gavage, was carried out at 100 mg/kg (10 mL/kg; vehicle: 5% DMSO-95% (0.5% HPMC+0.1% Tween 80 in water)), with sampling at 5 min, 15 min, 30 min, 1, 2, 4, 6, 8 and 24 hours, i.e., 9 time points in total (N=3/time point), using semi-serial bleeding for plasma.
For both intravenous and oral routes, the mice were restrained manually at the designated time points, with ca. 110 μL of blood being taken into K2EDTA tubes via the facial vein. Blood samples were put on ice and centrifuged to obtain plasma samples from which the concentration at each time point was measured by LC-MS/MS.

[3] = test system: IL-1β cytokine output from THP-1s; test: THP-1 AlphaLISA IL-1β cytokine assay; format: cell-based, human; conditions: Homo sapiens, THP-1, PMA-differentiated THP-1 cells, LPS 24 hr then Nigericin 1 hour; read-out: IL-1β (IC50)
Method in brief: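 PMA-differentiated THP-1 cells (72 h) were pre-incubated 30 min with compound, then LPS-primed 24 h and pulsed with nigericin for 1 h at 37 °C. Supernatant cytokine was quantified by AlphaLISA; % inhibition was normalised to +/−LPS plate controls and IC50 taken from concentration-response curves.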

Row | Structure (SMILES) | concentration at 0.05 h [1] [ng/mL] | concentration at 0.133 h [1] [ng/mL] | concentration at 0.25 h [1] [ng/mL] | concentration at 0.5 h [1] [ng/mL] | concentration at 1 h [1] [ng/mL] | concentration at 2 h [1] [ng/mL] | concentration at 4 h [1] [ng/mL] | concentration at 6 h [1] [ng/mL] | concentration at 8 h [1] [ng/mL] | concentration at 0.083 h [2] [ng/mL] | concentration at 0.25 h [2] [ng/mL] | concentration at 0.5 h [2] [ng/mL] | concentration at 1 h [2] [ng/mL] | concentration at 2 h [2] [ng/mL] | concentration at 4 h [2] [ng/mL] | concentration at 6 h [2] [ng/mL] | concentration at 8 h [2] [ng/mL] | concentration at 24 h [2] [ng/mL] | IC50 [3] [µM]
1 | C=C(CC(=O)OCCCCCC)C(=O)OCC(=O)O [Example 94, 2-((4-(hexyloxy)-2-methylene-4-oxobutanoyl)oxy)acetic acid] | 18000 | 6070 | 2440 | 550 | 42 | 1.9 | 1.4 | < 0.8 | < 0.8 | 27800 | 12600 | 8220 | 3110 | 2140 | 392 | 196 | 90 | < 0.8 | 5.3
2 | C=C(CC(=O)OC1CCCCC1)C(=O)OCc1nnn[nH]1 [Example 125, 1-((2H-tetrazol-5-yl)methyl) 4-cyclohexyl 2-methylenesuccinate] | 11900 | 3870 | 1070 | 346 | 38 | 3 | < 0.8 | < 0.8 | < 0.8 | 9360 | 4360 | 2650 | 1430 | 785 | 427 | 163 | 15 | < 0.8 | 17
3 | C=C(CC(=O)O[C@@H](C)CCCCCC)C(=O)OCCc1nnn[nH]1 [Example 129, (S)-1-(2-(1H-tetrazol-5-yl)ethyl) 4-octan-2-yl 2-methylenesuccinate] | 2920 | 872 | 309 | 96 | 7.7 | < 1.6 | < 1.6 | < 1.6 | < 1.6 | 305 | 1030 | 109 | 255 | 61 | 13 | 16 | 11 | 3.5 | 5.5
4 | C=C(CC(=O)OC1CCCCCCC1)C(=O)OC(C)c1nnn[nH]1 (centres unmarked) [Example 133, 1-(1-(1H-tetrazol-5-yl)ethyl) 4-cyclooctyl 2-methylenesuccinate] | 11000 | 4570 | 1950 | 315 | 33 | < 8 | < 8 | < 8 | < 8 | 9360 | 9940 | 4270 | 1100 | 527 | 799 | 146 | 101 | < 8 | 14.8
5 | C=C(CC(=O)OC1CCCCCCC1)C(=O)OCc1nnn[nH]1 [Example 134, 1-((1H-tetrazol-5-yl)methyl) 4-cyclooctyl 2-methylenesuccinate] | 31600 | 7760 | 2890 | 4300 | 74 | 12 | 11 | 1.4 | 1.7 | 17500 | 3500 | 7970 | 1980 | 856 | 636 | 94 | 62 | 7 | 9.8
6 | C=C(CC(=O)O[C@H](C)CCCCCC)C(=O)OCc1nn[nH]n1 [Example 161, (R)-1-((2H-tetrazol-5-yl)methyl) 4-(octan-2-yl) 2-methylenesuccinate] | 8890 | 2380 | 846 | 343 | 90 | 5.1 | < 4 | < 4 | < 4 | 7020 | 4340 | 1900 | 1260 | 727 | 186 | 108 | 16 | < 4 | 6.8
7 | C=C(CC(=O)O[C@@H](C)CCCCCC)C(=O)OCc1nn[nH]n1 [Example 164, (S)-1-(2H-tetrazol-5-yl)methyl 4-octan-2-yl 2-methylenesuccinate] | 6690 | 1250 | 534 | 211 | 18 | < 4 | < 4 | < 4 | < 4 | 3790 | 2970 | 1860 | 968 | 585 | 381 | 135 | 181 | < 4 | 2
8 | C=C(CC(=O)OC1C(C)(C)CC1(C)C)C(=O)OCC(=O)O [Example 169, 2-((2-methylene-4-oxo-4-(2,2,4,4-tetramethylcyclobutoxy)butanoyl)oxy) acetic acid] | 15600 | 6430 | 2800 | 516 | 8.6 | 2.5 | 1.3 | < 0.8 | < 0.8 | 37800 | 9880 | 4600 | 1750 | 971 | 215 | 57 | 7.7 | < 0.8 | 15.6
